The target of series [1] is T1, human calcitonin (a) receptor in BHK570 cells (Homo sapiens, UniProt P30988).
T1 construct: expressed in transfected cells
T1 sequence (P30988 25-474): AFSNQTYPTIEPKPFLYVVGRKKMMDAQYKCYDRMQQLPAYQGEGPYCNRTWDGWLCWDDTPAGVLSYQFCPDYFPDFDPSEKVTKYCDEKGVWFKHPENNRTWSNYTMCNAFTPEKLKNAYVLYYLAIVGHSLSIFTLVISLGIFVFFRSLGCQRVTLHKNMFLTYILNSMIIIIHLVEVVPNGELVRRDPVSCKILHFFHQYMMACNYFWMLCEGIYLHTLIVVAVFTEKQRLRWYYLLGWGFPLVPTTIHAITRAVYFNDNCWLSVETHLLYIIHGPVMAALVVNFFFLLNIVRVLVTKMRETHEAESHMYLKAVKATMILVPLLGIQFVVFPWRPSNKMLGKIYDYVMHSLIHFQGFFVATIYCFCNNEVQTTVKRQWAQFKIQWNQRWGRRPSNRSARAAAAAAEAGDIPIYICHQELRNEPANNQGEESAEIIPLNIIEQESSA
The experiment in a line: ASSAY (II)a functional assay, human calcitonin receptor (CRE luciferase). Format: cell-based. The following applies: read-out: hCTR funct. EC50. The essentials:
(§1)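 Ligand exposure 3 h at 37 °C, 5% CO2 in DMEM with 10% FBS, 10 mM Hepes pH 7.4. cAMP-driven luciferase read by luminescence after 30 min LucLite at room temperature.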

In series [2] the target is T2, rat calcitonin receptor (Rattus norvegicus, UniProt P32214).
T2 construct: expressed in transfected cells; host or cells: BHK tk'ts 13 (transient, FuGENE 6), membranes
T2 sequence (P32214 25-479 isoform P32214-2 limits assumed): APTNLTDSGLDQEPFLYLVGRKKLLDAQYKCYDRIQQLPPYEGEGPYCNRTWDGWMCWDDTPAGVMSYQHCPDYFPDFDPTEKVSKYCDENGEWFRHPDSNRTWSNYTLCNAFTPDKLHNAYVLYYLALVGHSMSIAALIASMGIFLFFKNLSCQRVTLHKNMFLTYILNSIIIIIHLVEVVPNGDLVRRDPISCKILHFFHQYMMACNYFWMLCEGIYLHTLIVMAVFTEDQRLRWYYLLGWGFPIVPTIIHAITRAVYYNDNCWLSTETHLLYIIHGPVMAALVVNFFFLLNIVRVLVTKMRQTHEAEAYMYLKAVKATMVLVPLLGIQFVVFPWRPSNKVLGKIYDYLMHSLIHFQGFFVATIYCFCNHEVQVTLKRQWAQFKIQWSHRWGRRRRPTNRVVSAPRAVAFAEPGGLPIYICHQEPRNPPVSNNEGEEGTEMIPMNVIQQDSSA
The experiment in a line: ASSAY (VIII) binding to the rat calcitonin receptor. To be noted: Table 7, read-out: rCTR bind IC50. An outline of the steps: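 Rat calcitonin receptor is expressed transiently in BHK tk′ts 13 cells cultured in DMEM with 10% FBS. Roughly two days (approximately 48 hours) post-transfection, cells are harvested for membrane preparation.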

In series [3] the target is T3, human calcitonin receptor (Homo sapiens, UniProt P30988).
T3 construct: expressed in transfected cells
T3 sequence (P30988 25-474): T1 sequence (P30988 25-474)
Kind of series: ASSAY (VII) binding to the human calcitonin receptor (SPA, 125I-Calcitonin).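 Also: cell membranes (35 ng/µL) combined with SPA beads in 40 µL of pH 7.4 Hepes buffer, 384-well format, signal counted on a TopCounter instrument.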 The following applies: read-out: hCTR bind IC50.

Series [4] addresses T4, human amylin receptor (membranes from Amylin 3(a)/CRE-luc cells) (Homo sapiens, UniProt O60896+P30988).
T4 construct: expressed in transfected cells
T4 sequence (P30988 25-474): T1 sequence (P30988 25-474)
T4 sequence (O60896 24-148 partner): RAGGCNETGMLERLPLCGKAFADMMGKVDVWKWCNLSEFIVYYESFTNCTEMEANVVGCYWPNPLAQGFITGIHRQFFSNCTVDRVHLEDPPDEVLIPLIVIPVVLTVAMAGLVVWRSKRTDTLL
Kind of series: ASSAY (V) binding to the human amylin receptor (SPA, 125I-rat amylin).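 Also: competition binding of cell membranes (35 ng/µL) mixed with SPA beads in 384-well plates at 40 µL total volume, read by scintillation counting.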

For series [5], the target named is T5, human amylin 3(a) receptor (human calcitonin receptor + RAMP-3) in BHK570 cells (Homo sapiens, UniProt O60896+P30988).
T5 construct: expressed in transfected cells
Kind of series: ASSAY (II)a functional assay, human amylin receptor (CRE luciferase). Type of series: cell-based. The essentials:
as §1

Series [6] is described as follows: ASSAY (IV) determination of solubility. Type of series: physicochemical. An outline of the steps: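 Dissolve polypeptide in water ([…] stock); combine 1:1 with each 100 mM buffer (glycylglycine pH 3.0/4.0/5.0; bistrispropane pH 6.0/6.5/7.0/7.5/8.0); hold 18 hours at room temperature; centrifuge; quantify polypeptide by UPLC.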
[7] abbreviates: Table 5, selectivity, hCTR bind IC50 / hAmylin-R bind IC50.
The mark [8] stands for this setting: Table 5a, selectivity, hCTR bind IC50 / hAmylin-R bind IC50.
Where [9] appears, read: Table 5b, selectivity, hCTR bind IC50 / hAmylin-R bind IC50.
The mark [10] stands for this setting: Table 5c, selectivity, hCTR bind IC50 / hAmylin-R bind IC50.
Setting [11] is: Table 7, human binding selectivity, included for comparison.
Where [12] appears, read: Table 7a (preferred compounds), human binding selectivity, included for comparison.
Where [13] appears, read: ratio of human calcitonin receptor binding IC50 to human amylin receptor binding IC50.
The mark [14] stands for this setting: hCTR funct. EC50 divided by hAmylin-R funct. EC50.
Setting [15] is: hCTR funct. EC50 over hAmylin-R funct. EC50.
The mark [16] stands for this setting: human functional selectivity: hCTR funct. EC50 / hAmylin-R funct. EC50.
Where [17] appears, read: bistrispropane buffer, pH 6.5, read-out: Solubility pH 6.5 Concentration.
[18] abbreviates: bistrispropane buffer, pH 7.5, read-out: Solubility pH 7.5 Concentration.
Setting [19] is: bistrispropane buffer, pH 6.0, read-out: Solubility pH 6.0 Concentration.
[20] abbreviates: bistrispropane buffer, pH 7.0, read-out: Solubility pH 7.0 Concentration.
Where [21] appears, read: bistrispropane buffer, pH 8.0, read-out: Solubility pH 8.0 Concentration.
[22] abbreviates: glycylglycine buffer, pH 3.0, read-out: Solubility pH 3.0 Concentration.
[23] abbreviates: glycylglycine buffer, pH 4.0, read-out: Solubility pH 4.0 Concentration.
The mark [24] stands for this setting: glycylglycine buffer, pH 5.0, read-out: Solubility pH 5.0 Concentration.

Each structure is given as a SMILES string. pEC50, pIC50: −log10 of the molar value. Where two headings read alike, the source gives them in different places. Numbered stars: 1 amine (or outer) side, 2 acyl side, 3 side chain; on linkers, the order of the positions; unused ones are H or OH. Bridge positions count the residues as written; N and C are the ends. Peptide text beside a SMILES is read from it. * marks the point of attachment. C20 diacid = O=C(O)CCCCCCCCCCCCCCCCCCC(=O)*; γGlu = O=C(O)[C@H](CCC(=O)[*:2])N[*:1] Where only a bound is given, the exact number is not on record here.

Take `CC[C@H](C)[C@H](NC(=O)[C@H](C)NC(=O)CNC(=O)[C@H](Cc1ccccc1)NC(=O)[C@H](CC(N)=O)NC(=O)[C@@H]1CCCN1C(=O)[C@H](CO)NC(=O)[C@H](CO)NC(=O)[C@H](Cc1c[nH]cn1)NC(=O)[C@H](CCCNC(=N)N)NC(=O)[C@H](CC(C)C)NC(=O)[C@H](Cc1ccccc1)NC(=O)[C@H](CC(N)=O)NC(=O)[C@H](C)NC(=O)[C@H](CC(C)C)NC(=O)[C@H](CCCNC(=N)N)NC(=O)[C@H](CCC(N)=O)NC(=O)[C@@H](NC(=O)[C@H](C)NC(=O)[C@@H]1CSSC[C@H](NC(=O)[C@@H](N)CCCCNC(=O)COCCOCCNC(=O)CC[C@H](NC(=O)CCCCCCCCCCCCCCCCCCC(=O)O)C(=O)O)C(=O)N[C@@H](CC(N)=O)C(=O)N[C@@H]([C@@H](C)O)C(=O)N[C@@H](C)C(=O)N[C@@H]([C@@H](C)O)C(=O)N1)[C@@H](C)O)C(=O)N1CCC[C@H]1C(=O)N[C@@H](CO)C(=O)N[C@@H](CO)C(=O)N[C@H](C(=O)N[C@@H](CC(N)=O)C(=O)N[C@H](C(=O)NCC(=O)N[C@@H](CO)C(=O)N[C@@H](CC(N)=O)C(=O)N[C@H](C(=O)N[C@@H](Cc1ccc(O)cc1)C(N)=O)[C@@H](C)O)C(C)C)[C@@H](C)O` [Example 41]: the pEC50 in series [1] is 8.36; in series [5] (human amylin receptor functional potency, assay (II), read-out: hAmylin-R funct. EC50) it was 9.59. Further, the pIC50 in series [2] was 7.13; in series [3], 7.67; in series [4] (Table 4, read-out: hAmylin-R bind IC50), 9.37. Also, the “Ratio hCT/hAmylin binding” value in series [4] (setting [7]), in series [4] (setting [8]), in series [4] (setting [9]), in series [4] (setting [10]), in series [4] (setting [11]) and in series [4] (setting [12]) was 49.9 each time. Also, the “Ratio hCT/hAmylin binding” value in series [4] (setting [13]) was determined as 49.9. For the same compound, the “Ratio hCT/hAmylin funct.” value in series [5] (setting [14]), in series [5] (setting [15]) and in series [5] (setting [16]) was 16.7 throughout.
As to `CC[C@H](C)[C@H](NC(=O)[C@H](C)NC(=O)CNC(=O)[C@H](Cc1ccccc1)NC(=O)[C@H](CC(N)=O)NC(=O)[C@@H]1CCCN1C(=O)[C@H](CO)NC(=O)[C@H](CO)NC(=O)[C@H](Cc1c[nH]cn1)NC(=O)[C@H](CCCNC(=N)N)NC(=O)[C@H](CC(C)C)NC(=O)[C@H](Cc1ccccc1)NC(=O)[C@H](Cc1c[nH]cn1)NC(=O)[C@H](C)NC(=O)[C@H](CC(C)C)NC(=O)[C@H](CCCNC(=N)N)NC(=O)[C@H](CCC(N)=O)NC(=O)[C@@H](NC(=O)[C@H](C)NC(=O)[C@@H]1CSSC[C@H](NC(=O)[C@@H](N)CCCCNC(=O)COCCOCCNC(=O)CCCCCCCCCCCCCCCCCCC(=O)O)C(=O)N[C@@H](CC(N)=O)C(=O)N[C@@H]([C@@H](C)O)C(=O)N[C@@H](C)C(=O)N[C@@H]([C@@H](C)O)C(=O)N1)[C@@H](C)O)C(=O)N1CCC[C@H]1C(=O)N[C@@H](CO)C(=O)N[C@@H](CO)C(=O)N[C@H](C(=O)N[C@@H](CC(N)=O)C(=O)N[C@H](C(=O)NCC(=O)N[C@@H](CO)C(=O)N[C@@H](CC(N)=O)C(=O)N[C@H](C(=O)N[C@@H](Cc1ccc(O)cc1)C(N)=O)[C@@H](C)O)C(C)C)[C@@H](C)O` [Example 90], the solubility at 18 h in series [6] (setting [17]), in series [6] (setting [18]), in series [6] (setting [19]), in series [6] (setting [20]), in series [6] (setting [21]) and in series [6] (setting [22]) was no less than 200 µM in each case. The solubility at 18 h in series [6] (setting [23]) and in series [6] (setting [24]) was no less than 200 µM throughout. The negative-log EC50 (pEC50) in series [1] was 9.63. Besides, the pIC50 in series [2] is 7.74. The “Ratio hCT/hAmylin binding” value in series [4] (setting [7]), in series [4] (setting [8]), in series [4] (setting [9]), in series [4] (setting [10]), in series [4] (setting [11]) and in series [4] (setting [12]) was 42.2 throughout. Moreover, the “Ratio hCT/hAmylin binding” value in series [4] (setting [13]) turned out to be 42.2. Further, the “Ratio hCT/hAmylin funct.” value in series [5] (setting [14]) and in series [5] (setting [16]) was 7.2 throughout.
For `CC[C@H](C)[C@H](NC(=O)[C@H](C)NC(=O)CNC(=O)[C@H](Cc1ccccc1)NC(=O)[C@H](CC(N)=O)NC(=O)[C@@H]1CCCN1C(=O)[C@H](CO)NC(=O)[C@H](CO)NC(=O)[C@H](Cc1c[nH]cn1)NC(=O)[C@H](CCCNC(=N)N)NC(=O)[C@H](CC(C)C)NC(=O)[C@H](Cc1ccccc1)NC(=O)[C@H](CC(N)=O)NC(=O)[C@H](C)NC(=O)[C@H](CC(C)C)NC(=O)[C@H](CCCNC(=N)N)NC(=O)[C@H](CCC(N)=O)NC(=O)[C@@H](NC(=O)[C@H](C)NC(=O)[C@@H]1CSSC[C@H](NC(=O)[C@H](CCCCN)NC(=O)CC[C@H](NC(=O)CCCCCCCCCCCCCCCCCCC(=O)O)C(=O)O)C(=O)N[C@@H](CC(N)=O)C(=O)N[C@@H]([C@@H](C)O)C(=O)N[C@@H](C)C(=O)N[C@@H]([C@@H](C)O)C(=O)N1)[C@@H](C)O)C(=O)N1CCC[C@H]1C(=O)N[C@@H](CO)C(=O)N[C@@H](CO)C(=O)N[C@H](C(=O)N[C@@H](CC(N)=O)C(=O)N[C@H](C(=O)NCC(=O)N1CCC[C@H]1C(=O)N[C@@H](CCC(=O)O)C(=O)N[C@H](C(=O)N[C@@H](Cc1ccc(O)cc1)C(N)=O)[C@@H](C)O)C(C)C)[C@@H](C)O` [Example 29] ({C20 diacid-γGlu}-KCNTATCATQRLANFLRHSSPNFGAIPSSTNVGPETY-NH2; disulfide 2-7), the solubility at 18 h in series [6] (setting [17]), in series [6] (setting [18]), in series [6] (setting [19]), in series [6] (setting [20]), in series [6] (setting [21]) and in series [6] (setting [22]) was no less than 200 µM throughout. Further, the solubility at 18 h in series [6] (setting [23]) and in series [6] (setting [24]) was no less than 200 µM each time. Besides, the pIC50 in series [2] is 7.67. Further, the “Ratio hCT/hAmylin binding” value in series [4] (setting [7]), in series [4] (setting [8]), in series [4] (setting [11]), in series [4] (setting [12]) and in series [4] (setting [13]) was 13.9 in each case. Further, the “Ratio hCT/hAmylin funct.” value in series [5] (setting [14]), in series [5] (setting [15]) and in series [5] (setting [16]) was 8.7 throughout.

The record behind these values is patent publication US9023789B2, “Amylin analogs and pharmaceutical compositions thereof” (Novo Nordisk A/S, priority 2012, dated 2015).
